Results as given in ChEMBL document CHEMBL1201862, “PubChem BioAssay data set” (2004).
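Cultured in 96-well plates, cells were exposed to test compound for 48 hours across five concentrations. Here, GI50 denotes the concentration required for 50% inhibition of growth.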 Calls of active or inactive are those of the source. No stated cut-off is given here; in the data, active = GI50 up to about 1.1 µM and inactive = higher.

Legend:
Assay in all cases: inhibition of tumour cell growth, NCI panel, 48 h
[1] = test system: NCI-H460
[2] = test system: SN12C
[3] = test system: SK-MEL-5
[4] = test system: BT-549
[5] = test system: KM12
[6] = test system: SK-MEL-28
[7] = test system: 786-0
[8] = test system: SF-539
[9] = test system: CAKI-1
[10] = test system: ACHN
[11] = test system: SNB-78
[12] = test system: SR
[13] = test system: HOP-92
[14] = test system: UO-31
[15] = test system: HOP-62
[16] = test system: COLO 205
[17] = test system: LOX IMVI
[18] = test system: NCI-H522
[19] = test system: UACC-62
[20] = test system: SNB-19

SMILES | GI50 [1] | GI50 [2] | GI50 [3] | GI50 [4] | GI50 [5] | GI50 [6] | GI50 [7] | GI50 [8] | GI50 [9] | GI50 [10] | GI50 [11] | GI50 [12] | GI50 [13] | GI50 [14] | GI50 [15] | GI50 [16] | GI50 [17] | GI50 [18] | GI50 [19] | GI50 [20]
Cc1cnc(NCCCN(C)C)c2c1[nH]c1ccc3cc(O)ccc3c12 | 0.0439 µM (active) | 0.244 µM (active) | 0.815 µM (active) | 1.52 µM (inactive) | 1.39 µM (inactive) | 1.39 µM (inactive) | 0.2 µM (active) | 0.508 µM (active) | 0.566 µM (active) | 0.552 µM (active) | 0.929 µM (active) | 0.0617 µM (active) | 0.187 µM (active) | 2.03 µM (inactive) | 0.267 µM (active) | 0.244 µM (active) | 0.247 µM (active) | 0.129 µM (active) | 0.678 µM (active) | 0.48 µM (active)
COC1N(C2CC(O)C(CO)O2)C(=O)NC(=O)C1(F)Br (stereo not given) | 0.346 µM (active) | 9.25 µM (inactive) | 7.66 µM (inactive) | 25 µM (inactive) | 21.6 µM (inactive) | 9.86 µM (inactive) | 5.01 µM (inactive) | 0.239 µM (active) | > 19.9 µM (inactive) | 1.88 µM (inactive) | > 50 µM (inactive) | 6.18 µM (inactive) | 22 µM (inactive) | 10.3 µM (inactive) | 1.45 µM (inactive) | 21.6 µM (inactive) | 6.1 µM (inactive) | 49.1 µM (inactive) | 4.27 µM (inactive) | 41.2 µM (inactive)
